According to patent EP1655287A1, “PROBE FOR DISEASES WITH AMYLOID ACCUMULATION, AMYLOID-STAINING AGENT, REMEDY AND PREVENTIVE FOR DISEASES WITH AMYLOID ACCUMULATION AND DIAGNOSTIC PROBE AND STAINING AGENT FOR NEUROFIBRILLARY CHANGE” (priority 2003, dated 2005):

Columns and labels:
Amyloid β-protein = assay: Screening of the degree of β-structure recognition (fluorescence, in the presence of Congo red); assay type: binding; settings: test compound 5 µM, amyloid β-protein 5 µM, Congo red 0.1 µM, phosphate buffer pH 7.4
senile plaques = molecular target: T1, senile plaques (Homo sapiens, UniProt P05067); assay: Staining of senile plaques and diffuse plaques in brain sections, compared with thioflavin S, BSB or anti-Aβ antibody 6F/3D immunostaining; assay type: binding, patient with Alzheimer's disease; settings: 100 µM compound in 50% ethanol; for staining properties compared with immunostaining of anti-Aβ antibody 6F/3D: adjacent sections immunostained with 6F/3D; for staining properties in sections of the brain of a patient with Alzheimer's disease: compared with thioflavin S (and BSB) on adjacent sections
T1 construct: The former has, as the main component, amyloid β-protein (Aβ protein) taking β-sheet structures; from tissue; host or cells: paraffin-embedded temporal lobe or hippocampus sections of an Alzheimer's disease patient's brain (Fukushimura Hospital)
T1 sequence (P05067 672-713 limits assumed): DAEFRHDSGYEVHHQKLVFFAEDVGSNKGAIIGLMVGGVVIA
From the text: The following explanation is made about testing of staining properties of the compounds of the present invention on brain sections of an Alzheimer's disease patient. • (1) Temporal lobe or hippocampus specimens of the brain of a patient who had been definitely diagnosed pathologically as Alzheimer's disease and of a normal aged individual were used. These specimens were provided from Fukushimura Hospital, our joint research facility, with the consent to their use for research purpose received from the bereaved family of the patient (BF Research Laboratories Institutional Ethics Board Permission No. RS-99-02). • (2) The brain tissues embedded in paraffin were sliced 6 or 8 µm thick, extended on slides, and dried. The paraffin-embedded brain sections were deparaffined by washing sequentially with xylene (10 minutes, twice), 100% ethanol (15 minutes, twice), 95% ethanol (15 minutes, twice), and a stream of water (10 minutes). • (3) Pre-treatment for staining with compounds of the present invention involved treating the sections for eliminating self-fluorescence due to lipofuscin. First, the deparaffined sections were immersed into a 10% formalin solution for 60 minutes and washed with PBS for 5 minutes, followed by immersion into a 0.25% solution of KMnO4 for 90 minutes. After washing twice with PBS for 2 minutes each, the sections were immersed into a solution of 0.1% K2S2O5/oxalic acid for about 30 seconds each, and then washed three times with PBS for 2 minutes each. • (4) About 150 µl of a 100 µM solution of a compound of the present invention dissolved in 50% ethanol was added dropwise onto the sections and allowed the reaction to be carried out for 10 minutes. The sections were dipped into tap water five times, and then 50% ethanol three to five times, followed by immediate classification. After that, the sections were immersed into PBS for 60 minutes, enclosed with Fluor Save Reagent (Calbiochem), and examined under a fluorescent microscope (Nikon, Eclips E800). Pictures were taken using a digital camera (Plaroid PDMCII).
Immunostaining was carried out as follows. • (a) Procedures for immunostaining amyloid β-protein: • (1) After the sections were deparaffined, the sections were washed twice in distilled water for 2 minutes each, and tissues were marked with an Immunopen. About 150 µl of formic acid was added dropwise and allowed to stand at room temperature for 5 minutes. The sections were washed with tap water for 5 minutes and immersed into cold PBS-Tween 20 for 2 minutes, and then about 150 µl of a 0.05% trypsin solution was added dropwise and allowed the reaction to be carried out at 37°C for 15 minutes. • (2) In an ice bath, the sections were washed twice with cold PBS-Tween 20 for 5 minutes each, and two drops of blocking serum were added and allowed the reaction to be carried out at 37°C for 15 minutes. Excess water was removed, and about 150 µl of 6F/3D, an antibody specific to amyloid β-protein (DAKO; diluted 1:50) was added dropwise and allowed the reaction to be carried out at 37°C for 1 hour. • (3) Further, after washing five times with cold PBS-Tween 20 for 2 minutes each, two drops of a solution of goat antimouse IgG (H+L) conjugated to biotin were added and allowed the reaction to be carried out at 37°C for 1 hour. After that, the sections were washed three times with cold PBS-Tween 20 for 2 minutes each, and two drops of ABS solution (a streptavidin-biotin-peroxidase complex solution) were added and allowed to stand for 30 minutes. The sections were again washed three times with cold PBS-Tween 20 for 2 minutes each, and about 150 µl of DAB solution (prepared by dissolving 10 mg of DAB in 20 ml of 0.05 mol/l Tris-HCl buffer and adding 100 µl of 3% hydrogen peroxide immediately before use) were added and allowed the color to be developed sufficiently. Then, the sections were washed with distilled water for 1 minute to stop the reaction, enclosed, and examined under a microscope.

[1] = Blood-brain barrier permeability after intravenous administration; settings: for Plasma: mice, content in plasma two minutes after intravenous administration; for tissue uptake at 2 min: mouse, brain, iv
Description: (B) Testing of blood-brain barrier permeability Measurements of blood-brain barrier permeability were made according to the following procedures. Compounds of the present invention were intravenously administered to mice to determine their in vivo blood-brain barrier permeability. • (1) Mice utilized Slc:ICR weighing 30-40 g (7 weeks old, n=3) (Nippon SLC). • (2) A test compound was dissolved in a mixture of 1N HCl, polyethylene glycol 400, and DMSO, or in DMSO or ethyl alcohol, and then diluted with purified water, and injected via tail vein. Two minutes after administration, the mice, under ether anesthesia, were subjected to taking blood from the abdominal aorta with a heparin-treated syringe and removing the brain. • (3) After taking blood, blood samples were centrifuged at 14,000 rpm at 4°C for 10 minutes, and their supernatants were kept at -80°C as plasma sample. The brain (including cerebellum) was kept at -80°C after its removal. • (4) The plasma sample, when used, was thawed, diluted with purified water, and then applied to a conditioned C18 solid-phase extraction cartridge (bond elute C18, 200 mg, Varian), followed by elution with methyl alcohol. Alternatively, after thawing the plasma sample, a diethyl ether/cyclohexane mixture was added, and the mixture was shaken, and then centrifuged to separate an oil layer. • (5) The brain material, when used, was subjected to measuring its wet weight with the brain remaining frozen, and saline was added to the brain for homogenization. The homogenate was centrifuged for 10 minutes, and the supernatant was applied to a conditioned C18 solid-phase extraction cartridge and eluted with methyl alcohol. Alternatively, after measuring the wet weight of the frozen brain, a diethyl ether/cyclohexane mixture was added to the brain, and the mixture was homogenized, shaken, and then centrifuged to separate an oil layer. • (6) The absorbance and fluorescence were detected employing high performance liquid chromatography. • (7) For each of the plasma and brain, the content of the test compound in the plasma or brain (%ID (injected dose)/ml or g) was determined, relative to the administered dose.

[2] = Acute toxicity testing, intravenous administration; assay type: in vivo; settings: male Crj:CD1 mice, via tail vein, observed up to 7 days; for MTD at 168 h: mouse, in vivo, iv, read-out: Maximum Tolerated Dose (mg/kg, intravenous administration)
Description: The following explanation is made of testing methods for properties of the compounds of the present invention. (A) Testing of acute toxicity Acute toxicity of the inventive compounds was determined employing mice by intravenous administration. Male Crj:CD1 mice were used and divided into groups of 4 mice, with an average weight of each group of 31-32 g. […] Up to 7 days after administration, observations were made.

Row | staining properties in sections of the brain of a patient with Alzheimer's disease (senile plaques) | Molecule | Degree of β-structure recognition (%) (Amyloid β-protein) | other results
1 |  | 2-[2-(2-dimethylamino-1,3,4-thiazol-5-yl)ethenyl]benzoxazole [BF-237] | 76.5% | 
2 | mainly stains senile plaques | CNc1ccc(/C=C/C=C/c2nc3ccccc3o2)cc1 [BF-185, 2-[[4-(4-methylamino)phenyl]-1,3-butadienyl)benzoxazole] | 82.7% | staining properties compared with immunostaining of anti-Aβ antibody 6F/3D (senile plaques): stains senile plaques (Fig. 3, wedge-shaped arrowheads) and diffuse plaques; Plasma [1]: 1.0 %ID/g or ml
3 | stains senile plaques | CNc1ccc(/C=C/C=C/c2nc3ccccc3s2)cc1 [BF-187, 2-[[4-(4-methylamino)phenyl]-1,3-butadienyl)benzothiazole] | 63.3% | Plasma [1]: 1.3 %ID/g or ml
4 | stains senile plaques | CNc1ccc(/C=C/C=C/c2nc3ccccc3[nH]2)cc1 [BF-188, 2-[[4-(4-methylamino)phenyl]-1,3-butadienyl]benzoimidazole] | 68.9% | Plasma [1]: 1.7 %ID/g or ml
5 | mainly stains senile plaques | CN(C)c1ncc(/C=C/c2nc3ccccc3s2)s1 [BF-196, 2-[2-(2-dimethylaminothiazol-5-yl)ethenyl]benzothiazole] | 53.5% | staining properties compared with immunostaining of anti-Aβ antibody 6F/3D (senile plaques): stains senile plaques; Plasma [1]: 1.8 %ID/g or ml; tissue uptake at 2 min [1]: 19 %ID/g
6 | stains senile plaques | Nc1ccc(/C=C/C=C/c2nc3ccc(O)cc3o2)c(O)c1 [BF-201] | 82.0% | staining properties compared with immunostaining of anti-Aβ antibody 6F/3D (senile plaques): stains senile plaques
7 |  | CN(C)c1ncc(-c2ccc3ccccc3n2)o1 [BF-221, 2-(2-dimethylaminooxazol-5-yl)quinoline] | 73.8% | 
8 |  | CN(C)c1ncc(/C=C/c2ccc3ccccc3n2)s1 [BF-222, 2-[2-(2-dimethylaminothiazol-5-yl)ethenyl]quinoline] | 62.3% | MTD at 168 h [2]: ≥ 10 mg/kg; Plasma [1]: 2.0 %ID/g or ml; tissue uptake at 2 min [1]: 13 %ID/g
9 |  | CN(C)c1ncc(-c2nc3ccccc3o2)s1 [BF-225, 2-(2-dimethylaminothiazol-5-yl)benzoxazole] | 87.5% | 
10 |  | Cc1ccc(S(=O)(=O)OCCOc2ccc3nc(/C=C/c4cnc(N(C)C)s4)oc3c2)cc1 [BF-226, 2-[2-(2-dimethylaminothiazol-5-yl)ethenyl]-6-[2-(4-tosyloxy)ethoxy]benzoxazole] | 43.3% | 
11 |  | Cc1nc(/C=C/C=C/c2ccc(N(C)C)cc2)oc1C [BF-228, 2-[4-(4-dimethylaminophenyl)-1,3-butadienyl]-4,5-dimethyloxazole] | 83.8% | MTD at 168 h [2]: ≥ 10 mg/kg
12 |  | Cc1nc(/C=C/C=C/c2cnc(N(C)C)o2)oc1C [BF-229, 2-[4-(2-dimethylaminooxazol-5-yl)-1,3-butadienyl]-4,5-dimethyloxazole] | 70.7% | 
13 |  | CN(C)c1ncc(/C=C/c2nc3ccccc3o2)o1 [BF-230, 2-[2-(2-dimethylaminooxazol-5-yl)ethenyl]benzoxazole] | 74.0% | MTD at 168 h [2]: ≥ 10 mg/kg
14 |  | CNc1ncc(/C=C/c2ccc(O)cc2)s1 [BF-235, 5-(4-hydroxystyryl)-2-methylaminothiazole] | 65.5% | 
15 |  | CN(C)c1nnc(/C=C/c2nc3ccccc3o2)o1 [BF-238, 2-[2-(2-dimethylamino-1,3,4-oxazol-5-yl)ethenyl]benzoxazole] | 52.3% | 
16 |  | Nc1ncc(-c2ccc3ccccc3n2)s1 [BF-240, 2-(2-aminothiazol-5-yl)quinoline] | 49.9% | 
17 |  | CCC[CH2][Sn]([CH2]CCC)([CH2]CCC)[c]1ccc2nc(C=Cc3cnc(N(C)C)s3)oc2c1 [BF-246, 6-tri(n-butyl)stannyl-2-[2-(2-dimethylaminothiazol-5-yl)ethenyl]benzoxazole] | 24.6% | 
18 |  | CN(C)c1ncc(/C=C/c2nc3ccc(I)cc3o2)s1 [BF-247, 6-(iodo)-2-[2-(2-dimethylaminothiazol-5-yl)ethenyl]benzoxazole] | 43.7% | 
19 |  | CN(C)c1ncc(/C=C/c2nc3ccccc3[nH]2)s1 [BF-248, 2-[2-(2-dimethylaminothiazol-5-yl)ethenyl]benzimidazole] | 40.1% | 
20 |  | CN(C)c1cnc(/C=C/c2nc3ccccc3s2)o1 [BF-250, 2-[2-(5-dimethylaminooxazol-2-yl)ethenyl]benzothiazole] | 43.1% | 
21 |  | Cc1ccc(S(=O)(=O)OCCOc2ccc3nc(/C=C/c4cnc(N(C)C)s4)sc3c2)cc1 [BF-251, 2-[2-(2-dimethylaminothiazol-5-yl)ethenyl]-6-[2-(4-tosyloxy)ethoxy]benzothiazole] | 37.5% | 
22 |  | CN(C)c1ncc(/C=C/c2nc3ccc(OCCF)cc3s2)s1 [BF-252, 2-[2-(2-dimethylaminothiazol-5-yl)ethenyl]-6-[2-(fluoro)ethoxy]benzothiazole] | 47.0% | 
23 |  | Nc1cnc(-c2ccc3ccccc3n2)o1 [BF-255, 2-(5-アミノオキサゾール-2-イル)キノリン] | 65.8% | 
24 |  | Cc1ccc2c(c1)sc(-c1ccc(N(C)C)cc1)[n+]2C [Thioflavin T, reference compound] | 61.8% | 

Row | Molecule | staining properties in sections of the brain of a patient with Alzheimer's disease (senile plaques) | Degree of β-structure recognition (%) (Amyloid β-protein) | other results
25 | CNc1ccc(/C=C/C=C/C=C/c2ccc3ccccc3n2)cc1 [BF-189, 1-(4-methylaminophenyl)-6-(2-quinolyl)-1,3,5-hexatrien] | stains senile plaques | 79.8% | MTD at 168 h [2]: ≥ 10 mg/kg
26 | CN(C)c1ncc(/C=C/C=C/c2nc3ccccc3[nH]2)s1 [BF-231, 2-[4-(2-dimethylaminothiazol-5-yl)-1,3-butadienyl]benzoimidazole] | stains senile plaques | 47.2% | Maximum Tolerated Dose (mg/kg, intravenous administration) [2]: ≧ 10 mg/kg
27 | O=C(O)c1cc(/C=C/c2ccc(/C=C/c3ccc(O)c(C(=O)O)c3)c(Br)c2)ccc1O [BSB, (trans, trans)-1-bromo-2,5-bis-(3-hydroxycarbonyl-4-hydroxy)styrylbenzen, reference compound] | stains both senile plaques and neurofibrillary tangles |  | 
28 | thioflavin S [reference compound] | stains both senile plaques and neurofibrillary tangles |  | 
